Source: the NIST ThermoML archive (doi:10.1016/j.jct.2018.01.019)

Assay: molar heat capacity at constant pressure
Details: 101.33 kPa, Crystal 2, Small sample (50 mg) DSC

O=[Si]=O [silicon dioxide]
Details	molar heat capacity at constant pressure [J/K/mol]
285 K	43.21
290 K	43.7
295 K	44.22
300 K	44.74
305 K	45.21
310 K	45.69
315 K	46.16
320 K	46.62
325 K	47.09
330 K	47.56
335 K	48.02
340 K	48.49
345 K	48.94
350 K	49.39
355 K	49.78
360 K	50.22
365 K	50.62
370 K	51.02
375 K	51.38
380 K	51.76
385 K	52.15
390 K	52.52
395 K	52.89
400 K	53.25
405 K	53.61
410 K	53.99
415 K	54.34
420 K	54.7
425 K	55.03
430 K	55.38
435 K	55.74
440 K	56.07
445 K	56.42
450 K	56.75
455 K	57.1
460 K	57.4
465 K	57.69
470 K	58.01
475 K	58.29
480 K	58.59
485 K	58.87
490 K	59.12
495 K	59.37
500 K	59.63
505 K	59.91
510 K	60.16
515 K	60.41
520 K	60.66
525 K	60.91
530 K	61.15
535 K	61.41
540 K	61.66
545 K	61.92
550 K	62.19
555 K	62.45
560 K	62.73
565 K	63.01
570 K	63.26
575 K	63.49
580 K	63.74
585 K	64.01
590 K	64.24
595 K	64.46
600 K	64.69
605 K	64.89
610 K	65.09
615 K	65.3
620 K	65.5
625 K	65.73
630 K	65.97
635 K	66.17
640 K	66.38
645 K	66.62
650 K	66.84
655 K	67.01
660 K	67.18
665 K	67.38
670 K	67.57
675 K	67.75
680 K	67.94
685 K	68.16
690 K	68.35
695 K	68.56
700 K	68.75
705 K	68.95
710 K	69.14
715 K	69.35
720 K	69.58
725 K	69.69
730 K	69.83
735 K	70
740 K	70.22
745 K	70.45
750 K	70.72
755 K	71
760 K	71.26
780.95 K	71.65
781.12 K	71.67
781.28 K	71.59
781.45 K	71.55
781.61 K	71.6
781.78 K	71.49
781.94 K	71.36
782.11 K	71.45
782.28 K	71.45
782.45 K	71.54
782.62 K	71.57
782.78 K	71.51
782.95 K	71.6
783.12 K	71.5
783.28 K	71.3
783.45 K	71.26
783.62 K	71.08
783.78 K	71.24
783.95 K	71.41
784.12 K	71.45
784.28 K	71.52
784.45 K	71.54
784.62 K	71.49
784.78 K	71.52
784.95 K	71.46
785.12 K	71.45
785.28 K	71.49
785.45 K	71.49
785.62 K	71.49
785.79 K	71.54
785.95 K	71.6
786.12 K	71.72
786.29 K	71.77
786.45 K	71.65
786.62 K	71.5
786.78 K	71.36
786.95 K	71.21
787.12 K	71.35
787.29 K	71.46
787.46 K	71.52
787.62 K	71.51
787.78 K	71.6
787.95 K	71.68
788.12 K	71.69
788.28 K	71.59
788.45 K	71.56
788.62 K	71.65
788.79 K	71.81
788.95 K	71.75
789.12 K	71.7
789.29 K	71.78
789.45 K	71.82
789.62 K	71.7
789.79 K	71.66
789.95 K	71.68
790.12 K	71.65
790.28 K	71.4
790.45 K	71.28
790.62 K	71.32
790.78 K	71.49
790.95 K	71.6
791.12 K	71.65
791.29 K	71.82
791.45 K	71.83
791.62 K	71.77
791.79 K	71.7
791.95 K	71.64
792.12 K	71.58
792.29 K	71.65
792.45 K	71.69
792.61 K	71.77
792.78 K	71.83
792.95 K	71.78
793.12 K	71.69
793.28 K	71.67
793.45 K	71.75
793.61 K	71.63
793.78 K	71.65
793.95 K	71.8
794.12 K	71.75
794.29 K	71.74
794.45 K	71.73
